{"source": "patent US6979686B1", "about": "“Substituted pyrazoles as p38 kinase inhibitors” (Pharmacia Corporation, priority 2001, dated 2005)", "key": {"human p38 kinase alpha": {"target": "T1, human p38 kinase alpha (Homo sapiens, UniProt Q16539)", "T1 construct": "GST (N, cleaved yes); made in house; host or cells: E. coli DH10B", "T1 sequence (Q16539 whole entry)": "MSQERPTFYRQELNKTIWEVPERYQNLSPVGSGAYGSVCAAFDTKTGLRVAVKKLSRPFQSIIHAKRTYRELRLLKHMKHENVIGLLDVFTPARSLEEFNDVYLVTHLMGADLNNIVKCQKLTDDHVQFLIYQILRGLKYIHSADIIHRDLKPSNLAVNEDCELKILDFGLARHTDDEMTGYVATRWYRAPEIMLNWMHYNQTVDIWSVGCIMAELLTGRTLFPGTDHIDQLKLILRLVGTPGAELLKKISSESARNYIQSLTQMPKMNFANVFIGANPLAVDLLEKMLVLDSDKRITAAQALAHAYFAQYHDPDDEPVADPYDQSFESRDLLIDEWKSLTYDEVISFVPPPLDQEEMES", "test": "p38 kinase in vitro assay, phosphorylation of biotinylated PHAS-I with 32P-ATP", "format": "biochemical", "conditions": "for P38 alpha kinase % inhib @ conc. (uM): @ 1.0 uM"}, "[1]": {"test_system": "TNF-α, U937 human histiocytic lymphoma cell line", "test": "LPS stimulation of TNF production by U937 cells", "format": "cell-based", "conditions": "for inhibition at 1 µM: U-937, @ 1.0 uM, read-out: U937 Cell % inhib @ conc.; for U937 Cell % inhib @ conc. (uM): @ 1.0 uM; for U937 Cell % inhib @ conc.: @ 10.0 uM", "method_in_brief": "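U937 cells differentiated 24 h with 20 ng/ml PMA, rested 24-48 h, used at 2 million cells/ml. Compounds in 0.1% DMSO final; LPS (E. coli, 100 ng/ml final) stimulation for 4 h at 37° C. Released TNF-α measured by ELISA; IC50 (μM).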"}, "[2]": {"conditions": "TNF production, human U937 cells stimulated with LPS, read-out: U937 Cell IC50"}, "[3]": {"conditions": "in vitro P38-alpha kinase, read-out: P38 alpha kinase IC50"}, "[4]": {"conditions": "Homo sapiens, TNF production, LPS-stimulated U937 cells"}, "[5]": {"conditions": "in vitro P38-alpha kinase inhibition, read-out: P38 alpha kinase IC50"}, "[6]": {"conditions": "Homo sapiens, U-937, TNF production, human U937 cells stimulated with LPS, read-out: U937 Cell IC50"}, "[7]": {"conditions": "TNF production, U937 cells stimulated with LPS"}, "[8]": {"conditions": "TNF production, LPS-stimulated U937 cells"}, "[9]": {"conditions": "TNF production in human U937 cells stimulated with LPS"}}, "note": "Read-outs that look alike come from different tables or passages of the source.", "data": [{"smiles": "Cc1c(-c2ccncc2)c(-c2ccc(F)cc2)nn1CC(=O)N(C)CCN(C)C", "note": "[Example B-2375]", "values": [{"measurement": "P38 alpha kinase % inhib @ conc.", "setting": "human p38 kinase alpha; @ 100.0 uM", "result": 62.0, "unit": "% @"}, {"measurement": "IC50", "setting": "[1]; [2]", "result": "> 10", "unit": "µM"}]}, {"smiles": "O=C(NCCCc1[nH]nc(-c2ccc(F)cc2)c1-c1ccncc1)NCCc1ccccn1", "note": "[Example B-1314]", "values": [{"measurement": "IC50", "setting": "human p38 kinase alpha; [3]", "result": 45, "unit": "nM"}, {"measurement": "inhibition at 1 µM", "setting": "[1]; [4]", "result": 24, "unit": "%"}]}, {"smiles": "CCOC(=O)CC[C@H](NC(=O)Cn1nc(-c2ccc(F)cc2)c(-c2ccncc2)c1C)C(=O)OCC", "note": "[Example B-2360]", "values": [{"measurement": "P38 alpha kinase % inhib @ conc.", "setting": "human p38 kinase alpha; @ 10.0 uM", "result": 45.0, "unit": "% @"}, {"measurement": "IC50", "setting": "[1]; [2]", "result": "> 10", "unit": "µM"}]}, {"smiles": "Cc1ccc(C)c(S(=O)(=O)NCCCc2[nH]nc(-c3ccc(F)cc3)c2-c2ccncc2)c1", "note": "[Example B-1273]", "values": [{"measurement": "IC50", "setting": "human p38 kinase alpha; [3]", "result": "< 100", "unit": "nM"}, {"measurement": "inhibition at 1 µM", "setting": "[1]; [4]", "result": 36, "unit": "%"}]}, {"smiles": "CNC(=O)CCC(NS(=O)(=O)Cc1ccccc1)c1[nH]nc(-c2ccc(F)cc2)c1-c1ccncc1", "note": "(stereo not drawn) [Example B-0876]", "values": [{"measurement": "IC50", "setting": "human p38 kinase alpha; [5]", "result": 890, "unit": "nM"}, {"measurement": "IC50", "setting": "[1]; [6]", "result": "> 1", "unit": "µM"}]}, {"smiles": "O=C(c1ccc(Cl)cc1)N1CCC(c2[nH]nc(-c3ccc(F)cc3)c2-c2ccncc2)CC1", "note": "[Example B-1389]", "values": [{"measurement": "IC50", "setting": "human p38 kinase alpha; [3]", "result": 60, "unit": "nM"}, {"measurement": "IC50", "setting": "[1]; [6]", "result": 0.57, "unit": "µM"}]}, {"smiles": "COc1ccc(CC(=O)NCCc2[nH]nc(-c3ccc(F)cc3)c2-c2ccncc2)cc1OC", "note": "[Example B-0999]", "values": [{"measurement": "P38 alpha kinase % inhib @ conc. (uM)", "setting": "human p38 kinase alpha", "result": 61.0, "unit": "% @"}, {"measurement": "U937 Cell % inhib @ conc. (uM)", "setting": "[1]; [7]", "result": 24.0, "unit": "% @"}]}, {"smiles": "O=S(=O)(c1ccc(Cl)cc1)N1CCC(c2[nH]nc(-c3ccc(F)cc3)c2-c2ccncc2)CC1", "note": "[Example B-1471]", "values": [{"measurement": "IC50", "setting": "human p38 kinase alpha; [3]", "result": 850, "unit": "nM"}, {"measurement": "inhibition at 1 µM", "setting": "[1]; [4]", "result": 25, "unit": "%"}]}, {"smiles": "Cc1c(-c2ccncc2)c(-c2ccc(F)cc2)nn1CC(=O)NCCc1cccs1", "note": "[Example B-2279]", "values": [{"measurement": "IC50", "setting": "human p38 kinase alpha; [3]", "result": 320, "unit": "nM"}, {"measurement": "U937 Cell % inhib @ conc.", "setting": "[1]; [8]", "result": 36.0, "unit": "% @"}]}, {"smiles": "CCNC(=O)N1CCC(c2[nH]nc(-c3ccc(F)cc3)c2-c2ccncc2)CC1", "note": "[Example B-1381]", "values": [{"measurement": "IC50", "setting": "human p38 kinase alpha; [3]", "result": 55, "unit": "nM"}, {"measurement": "IC50", "setting": "[1]; [6]", "result": 0.73, "unit": "µM"}]}, {"smiles": "COC(=O)[C@H](CSCc1ccccc1)NC(=O)Cn1nc(-c2ccc(F)cc2)c(-c2ccncc2)c1C", "note": "[Example B-2339]", "values": [{"measurement": "P38 alpha kinase % inhib @ conc.", "setting": "human p38 kinase alpha; @ 10.0 uM", "result": 84.0, "unit": "% @"}, {"measurement": "IC50", "setting": "[1]; [2]", "result": "> 10", "unit": "µM"}]}, {"smiles": "COc1ccc(CN(CCc2ccccc2)C(=O)Cn2nc(-c3ccc(F)cc3)c(-c3ccncc3)c2C)cc1", "note": "[Example B-2396]", "values": [{"measurement": "P38 alpha kinase IC50, uM or % inhib @ conc. (uM): % inhib", "setting": "human p38 kinase alpha; @ 10.0 uM", "result": 75.0, "unit": "% @"}, {"measurement": "IC50", "setting": "[1]; TNF production, U937 cells stimulated with LPS, read-out: U937 Cell IC50, uM or % inhib @ conc. (uM): IC50", "result": "> 10", "unit": "µM"}]}, {"smiles": "COc1cccc(C(=O)NCCCc2[nH]nc(-c3ccc(F)cc3)c2-c2ccncc2)c1", "note": "[Example B-1185]", "values": [{"measurement": "P38 alpha kinase % inhib @ conc. (uM)", "setting": "human p38 kinase alpha", "result": 71.0, "unit": "% @"}, {"measurement": "IC50", "setting": "[1]; [2]", "result": 0.79, "unit": "µM"}]}, {"smiles": "CC(NC(=O)c1ccccc1F)c1[nH]nc(-c2ccc(F)cc2)c1-c1ccncc1", "note": "(stereo not drawn) [Example B-0699]", "values": [{"measurement": "IC50", "setting": "human p38 kinase alpha; [5]", "result": 340, "unit": "nM"}, {"measurement": "U937 Cell % inhib @ conc. (uM)", "setting": "[1]; [9]", "result": 31.0, "unit": "% @"}]}, {"smiles": "O=C(NC(Cc1ccccc1)c1[nH]nc(-c2ccc(F)cc2)c1-c1ccncc1)c1ccno1", "note": "(stereo not drawn) [Example B-0808]", "values": [{"measurement": "IC50", "setting": "human p38 kinase alpha; [5]", "result": 3090, "unit": "nM"}, {"measurement": "IC50", "setting": "[1]; [6]", "result": "> 1", "unit": "µM"}]}, {"smiles": "Cc1n[nH]c(-c2ccc(Br)cc2)c1-c1ccncc1", "note": "[Example A-39]", "values": [{"measurement": "IC50", "setting": "human p38 kinase alpha; activated human p38 kinase alpha, PHAS-I substrate, 50 μM unlabeled ATP, read-out: p38 kinase IC50", "result": 1100, "unit": "nM"}, {"measurement": "IC50", "setting": "[1]; Table 5, LPS-stimulated U937 cells, TNF-α, read-out: U937 Cell Assay IC50", "result": 0.244, "unit": "µM"}]}, {"smiles": "CC(NC(=O)c1ccc(C(F)(F)F)cc1)c1[nH]nc(-c2ccc(F)cc2)c1-c1ccncc1", "note": "(stereo not drawn) [Example B-0704]", "values": [{"measurement": "IC50", "setting": "human p38 kinase alpha; [5]", "result": 2190, "unit": "nM"}, {"measurement": "U937 Cell % inhib @ conc. (uM)", "setting": "[1]; [9]", "result": 29.0, "unit": "% @"}]}, {"smiles": "O=S(=O)(NCCCc1[nH]nc(-c2ccc(F)cc2)c1-c1ccncc1)c1ccccc1Br", "note": "[Example B-1259]", "values": [{"measurement": "IC50", "setting": "human p38 kinase alpha; [3]", "result": "< 100", "unit": "nM"}, {"measurement": "IC50", "setting": "[1]; [6]", "result": 0.48, "unit": "µM"}]}, {"smiles": "O=C(NCCc1[nH]nc(-c2ccc(F)cc2)c1-c1ccncc1)NC(=O)c1ccccc1", "note": "[Example B-0934]", "values": [{"measurement": "P38 alpha kinase % inhib @ conc. (uM)", "setting": "human p38 kinase alpha", "result": 67.0, "unit": "% @"}, {"measurement": "U937 Cell % inhib @ conc. (uM)", "setting": "[1]; [7]", "result": 36.0, "unit": "% @"}]}, {"smiles": "Cn1cnc(S(=O)(=O)N2CCC(c3[nH]nc(-c4ccc(F)cc4)c3-c3ccncc3)CC2)c1", "note": "[Example B-1434]", "values": [{"measurement": "IC50", "setting": "human p38 kinase alpha; [3]", "result": 190, "unit": "nM"}, {"measurement": "inhibition at 1 µM", "setting": "[1]; [4]", "result": 28, "unit": "%"}]}, {"smiles": "CCOC(=O)C(NC(=O)NCCc1[nH]nc(-c2ccc(F)cc2)c1-c1ccncc1)C(C)C", "note": "(stereo not drawn) [Example B-0976]", "values": [{"measurement": "P38 alpha kinase % inhib @ conc. (uM)", "setting": "human p38 kinase alpha", "result": 79.0, "unit": "% @"}, {"measurement": "U937 Cell % inhib @ conc. (uM)", "setting": "[1]; [7]", "result": 36.0, "unit": "% @"}]}, {"smiles": "Cc1c(-c2ccncc2)c(-c2ccc(F)cc2)nn1CC(=O)N1CCC[C@H]1CN1CCCC1", "note": "[Example B-2384]", "values": [{"measurement": "P38 alpha kinase % inhib @ conc.", "setting": "human p38 kinase alpha; @ 100.0 uM", "result": 49, "unit": "% @"}, {"measurement": "U937 Cell % inhib @ conc.", "setting": "[1]; [8]", "result": 10.0, "unit": "% @"}]}, {"smiles": "CC(NC(=O)c1cccc(F)c1)c1[nH]nc(-c2ccc(F)cc2)c1-c1ccncc1", "note": "(stereo not drawn) [Example B-0694]", "values": [{"measurement": "IC50", "setting": "human p38 kinase alpha; [5]", "result": 620, "unit": "nM"}, {"measurement": "U937 Cell % inhib @ conc. (uM)", "setting": "[1]; [9]", "result": 21.0, "unit": "% @"}]}, {"smiles": "CC(NC(=O)N1CCCC1)c1[nH]nc(-c2ccc(F)cc2)c1-c1ccncc1", "note": "(stereo not drawn) [Example B-0581]", "values": [{"measurement": "IC50", "setting": "human p38 kinase alpha; [5]", "result": 260, "unit": "nM"}, {"measurement": "IC50", "setting": "[1]; Homo sapiens, U-937, TNF production in human U937 cells stimulated with LPS, read-out: U937 Cell IC50", "result": 2.17, "unit": "µM"}]}]}
